Reference: the NIST ThermoML archive (doi:10.1016/j.jct.2006.09.014)
Values joined by “and” are separate entries in the source; they are usually repeats but may differ in a detail not shown here. Equal values may be shown once. Numbers after ± are expanded uncertainties.

Settings: Liquid; for mass density: Bellows volumetry; for vapor or sublimation pressure: Closed cell (Static) method

CCCC [butane]
Settings | mass density [kg/m3]
280 K, 145 kPa | 594.1 ± 0.9
280 K, 168.4 kPa | 594.15 ± 0.9
280 K, 191.6 kPa | 594.23 ± 0.9
280 K, 215 kPa | 594.24 ± 0.9
280 K, 238.3 kPa | 594.32 ± 0.9
280 K, 261.7 kPa | 594.34 ± 0.9
280 K, 285 kPa | 594.4 ± 0.9
300 K, 271.4 kPa | 571.6 ± 0.86
300 K, 294.8 kPa | 571.61 ± 0.86
300 K, 318.1 kPa | 571.67 ± 0.98
300 K, 341.4 kPa | 571.69 ± 0.86
300 K, 364.8 kPa | 571.72 ± 0.86
300 K, 388.1 kPa | 571.76 ± 0.86
300 K, 411.5 kPa | 571.8 ± 0.86
320 K, 469.7 kPa | 547.03 ± 0.82
320 K, 493 kPa | 547.12 ± 0.91
320 K, 516.3 kPa | 547.15 ± 0.88
320 K, 539.6 kPa | 547.22 ± 0.82
320 K, 563 kPa | 547.25 ± 0.82
320 K, 586.3 kPa | 547.25 ± 0.85
320 K, 609.6 kPa | 547.3 ± 0.82
340 K, 763.1 kPa | 520.53 ± 0.78
340 K, 786.4 kPa | 520.62 ± 0.81
340 K, 809.7 kPa | 520.68 ± 0.81
340 K, 833 kPa | 520.72 ± 0.8
340 K, 856.3 kPa | 520.82 ± 0.78
340 K, 879.7 kPa | 520.9 ± 0.78
340 K, 903 kPa | 520.96 ± 0.78
360 K, 1176.4 kPa | 490.56 ± 0.72
360 K, 1199.7 kPa | 490.68 ± 0.74
360 K, 1223 kPa | 490.79 ± 0.74
360 K, 1246.3 kPa | 490.91 ± 0.73
360 K, 1269.6 kPa | 490.99 ± 0.73
360 K, 1292.9 kPa | 491.01 ± 0.72
360 K, 1316.1 kPa | 491.18 ± 0.72
380 K, 1759.6 kPa | 454.68 ± 0.66
380 K, 1782.8 kPa | 454.9 ± 0.66
380 K, 1806.1 kPa | 455.09 ± 0.66
380 K, 1829.3 kPa | 455.25 ± 0.67
380 K, 1852.5 kPa | 455.46 ± 0.66
380 K, 1875.8 kPa | 455.6 ± 0.66
380 K, 1899 kPa | 455.78 ± 0.66
424 K, 3720.3 kPa | 289.99 ± 1.1
424 K, 3720.4 kPa | 289.82 ± 1.2
424 K, 3728.4 kPa | 294.73 ± 1.1
424 K, 3737.3 kPa | 298.52 ± 1.1

Settings | mass density [kg/m3] | vapor or sublimation pressure
280 K | 594.08 ± 0.95 | 133 ± 0.6 kPa
300 K | 571.57 ± 0.91 | 257.5 ± 0.6 kPa
320 K | 547.03 ± 0.88 | 456.2 ± 0.9 kPa
340 K | 520.5 ± 0.83 | 752 ± 1.2 kPa
360 K | 490.55 ± 0.78 | 1170.2 ± 1.8 kPa
370 K | – | 1434.9 ± 2.2 kPa
380 K | 454.55 ± 0.73 | 1739.9 ± 2.7 kPa and 1740.4 ± 2.7 kPa
390 K | – | 2092.1 ± 3.3 kPa
400 K | – | 2495.2 ± 3.9 kPa and 2494.6 ± 3.9 kPa
410 K | – | 2955 ± 4.6 kPa
420 K | – | 3482.5 ± 5.4 kPa
422 K | – | 3597.5 ± 5.6 kPa
424 K | 288.22 ± 1.7 | 3716.9 ± 5.8 kPa
